# Test results published in patent US7772228B2, “Method for treatment of bacterial infections with once or twice-weekly administered rifalazil” (priority 1998, dated 2010).
# Where two headings read alike, the source gives them in different places.
# Experiments:
# M. tuberculosis [1] = format: cell-based, Mycobacterium tuberculosis; settings: comparison of MIC50 and MIC90, clinical isolates
# M. intracellulare [2] = assay: Mice infected with M. intracellulare, CFUs in organs; format: in vivo; settings: after four and eight weeks of treatment
# [3] = Multiple-dose oral toxicology studies in dogs; format: in vivo
# Protocol: In chronic studies with dogs and rats, the no-observed-adverse-effect-level was 1000 mg/kg. […] Significant partitioning of drug-related radioactivity to the formed elements of the blood was observed. […] The urine contained a small amount (5.5%) of radioactivity.
# Single-dose and multiple-dose oral toxicology studies were conducted in mice, rats, and dogs. In addition, to maximize systemic exposure, single-dose intravenous (IV) and intraperitoneal (IP) studies were conducted in rats and mice. Four-week and 13-week oral studies in dogs and rats and 26-week oral studies in rats included standard clinical measurements and physical and pathological evaluations.
# M. avium = settings: 18 strains, agar dilution; cited from earlier work
# [4] = tested on: extracellular M. tuberculosis; assay: MIC and MBC against extracellular bacteria; format: cell-based, Mycobacterium tuberculosis
# [5] = human, in vivo
# Protocol: The third trial (003) was a randomized, rising, double-blind, multiple-dose, placebo-controlled study where subjects were observed during the 14-consecutive days of drug administration in dosages 0, 5 and 25 mg/day and for an additional 14 days without medication. All subjects received the dose within 30 minutes after eating a standardized breakfast. Subjects were divided into two groups. In Group 1, eight subjects were randomized to a daily 25 mg dose of rifalazil and four subjects were randomized to placebo. Numerous adverse reactions began to appear with the 25 mg dose several days after dosing and it became apparent that 25 mg daily dose was not safe. Consequently, after review of the safety data, the study protocol was amended to proceed with a lower dose of 5 mg in group 2. Group 2 consisted of eight subjects randomized to a daily 5 mg dose of rifalazil and four subjects randomized to placebo.
# In the clinical trials 001 and 002 all patients were submitted to laboratory testing where the hematology, serum chemistry and urinanalysis were examined prior to dosing, during dosing and at least 14 days following the cessation of drug administration.
# Laboratory testing regimen for 003 and 004 trials was the same as for 001 and 002 trials.
# The onset and magnitude of decrease in hematologic parameters appeared to be related to this dose. In order to better visualize the drop and subsequent recovery in these parameters, the data were graphed to synchronize subjects to their last dose.
# [6] = Clinical signs, general behavior and spontaneous locomotor activity of mice; format: in vivo
# Protocol: Pharmacological studies were undertaken in mice, rats, and dogs, and in isolated guinea pig ileum.
# Rifalazil had little effect on the clinical signs or general behavior of mice following oral administration of 100, 300, or 1,000 mg/kg. Rifalazil had no effect on the spontaneous locomotor activity of mice at 100 and 300 mg/kg.
# M. intracellulare [7] = settings: 31 strains, agar dilution; cited from earlier work
# clinical [8] = settings: human, in vivo
# Excerpt: Attempts were made to analyze the multiple-dose pharmacokinetics using a linear 3-compartment model, and a 3-compartment model incorporating enzyme induction. However, neither multi-compartmental model accurately characterized the pharmacokinetic parameters in all subjects. Daily dosing and related early terminations due to adverse reactions, differences in bioavailability from a food effect, and nonconnective dose administration further complicated these analyses. Therefore, only noncompartmental pharmacokinetic parameters were derived for clinical trials 003 and 004. For the 004 clinical trial, the pharmacokinetic analysis of this multiple-dose study was limited to a comparison of the noncompartmental parameters obtained from the first dose (Day 1) data versus the fourth (last) dose (Day 22). Because of extensive sampling after the fourth dose, this study yielded the most complete data about terminal elimination of rifalazil given in a multiple-dose regimen.
# M. tuberculosis [9] = settings: eight weeks treatment; cited from earlier work
# M. tuberculosis [10] = settings: cited from earlier work
# clinical [11] = settings: human, in vivo; remark: listed apart in the source
# Protocol: A total of four clinical trials have been conducted to study the effects of rifalazil in humans. Two single-dose Phase 1 clinical trials (001) and (002) assessed the safety and pharmacokinetics of rifalazil in normal, healthy, fasted subjects. In the 001 trial, a single 300 mg dose of rifalazil was administered to six subjects. In the 002 trial, single doses of 30 mg or 100 mg were administered to eight subjects each. The results of these studies indicated a substantially higher incidence of adverse reactions at the 300 mg dose compared to the 30 mg or 100 mg dose.
# The pharmacokinetics of rifalazil in whole blood in these two clinical trials was similar to that of rifalazil pharmacokinetics in plasma. […] Therefore, future pharmacokinetic analyses focused on rifalazil concentrations in plasma. Table 7 summarizes noncompartmental parameters derived from plasma concentrations in fasted subjects following administration of single doses of 30 mg, 100 mg, or 300 mg of rifalazil in these studies.
# Pharmacokinetic analyses associated with clinical trials involved measurement of concentrations of rifalazil in plasma and/or whole blood of subjects participating in the four Phase 1 studies using high performance liquid chromatography.
# [12] = Ref. 7, 7H11 agar, 22 strains (rif^r and rif^s)
structure (smiles),measurement,setting,value
"CO[C@H]1/C=C/O[C@@]2(C)Oc3c(C)c(O)c4c(=O)c(c5oc6cc(N7CCN(CC(C)C)CC7)cc(O)c6nc-5c4c3C2=O)NC(=O)/C(C)=C\C=C\[C@H](C)[C@H](O)[C@@H](C)[C@@H](O)[C@@H](C)[C@H](OC(C)=O)[C@@H]1C [Rifalazil, 3′-hydroxy-5′-(4-isobutyl-1-piperazinyl)benzoxasinorifamycin]",fold greater activity than rifabutin,M. tuberculosis [1],4 fold
same,fold greater activity than rifampin,M. tuberculosis [1],> 64 fold
same,number of CFUs in organs,M. intracellulare [2],significantly reduced the number of colony forming units (CFUs) in organs
same,liver weight,"[3]; 1,000 mg/kg, four weeks daily dosing",slight increase in liver weight
same,no observable adverse effect level,"[3]; 13-week study, daily oral",300 mg/kg
same,no-observed-adverse-effect-level,"[3]; chronic studies, dogs",1000 mg/kg
same,doses at which hematological changes were noted,"[3]; multiple-dose oral, dogs",> 30 mg/kg
same,MIC90,M. avium,1.56 µg/mL
same,MIC and MBC fold lower than rifampin,[4]; extracellular bacteria,at least 10 fold
same,MBCs relative to the MICs,[4]; typical,2-4 fold
same,"WBC counts, level of continuous drop",[5],around 2.0 K/CU MM
same,nadir of mean WBC after the last dose,[5],1 to 2 days
same,time for hematologic parameters to return to normal after the last dose,[5],≤ 14 days
same,spontaneous locomotor activity,[6]; 1000 mg/kg,increase in spontaneous locomotor activity for one hour
same,spontaneous locomotor activity,[6]; 100 and 300 mg/kg,no effect
same,clinical signs or general behavior,"[6]; oral 100, 300, or 1,000 mg/kg",little effect
same,MIC90,M. intracellulare [7],0.1 µg/mL
same,increase of AUC(0-24) on Day 22 relative to Day 1,clinical [8]; 25 mg,approximately 17%
same,half-life,"clinical [8]; 25 mg, apparent terminal half-life, range",29.5 to 107 h
same,increase of AUC(0-24) on Day 22 relative to Day 1,clinical [8]; 50 mg,~27%
same,half-life,"clinical [8]; 50 mg, apparent terminal half-life, range",65.9 to 148 h
same,half-life,clinical [8]; Half-life distribution t½ (mean),10.5 h
same,half-life,clinical [8]; Half-life elimination t½ (mean),~61 h
same,Tmax,clinical [8]; Tmax (mean),5.7 h
same,"gross lung lesions, bacterial loads, survival time versus rifampin",M. tuberculosis [9],outperformed rifampin in treating the disease
same,MIC90,"M. tuberculosis [10]; 22 strains, agar dilution",12.5 µg/mL
same,MIC90,M. tuberculosis [10]; [12],12.5 µg/mL
same,MIC Range,M. tuberculosis [10]; [12],≦0.0125 to 12.5^ μg/mL
same,MIC90,"M. tuberculosis [10]; Ref. 8, 7H11 agar, 16 strains (rif^s)",≦0.0125 μg/mL
same,plasma to blood ratio,clinical [11],1.6:1
same,AUC(0-inf),clinical [11]; 30 mg,505 ng·h/mL
same,AUC(0-t),clinical [11]; 30 mg,197 ng·h/mL
same,Cmax,clinical [11]; 30 mg,17.8 ng/mL
same,Tmax,clinical [11]; 30 mg,3.1 h
same,half-life,clinical [11]; 30 mg,48.7 h
same,AUC(0-inf),clinical [11]; 100 mg,1540 ng·h/mL
same,AUC(0-t),clinical [11]; 100 mg,800 ng·h/mL
same,Cmax,clinical [11]; 100 mg,53.6 ng/mL
same,Tmax,clinical [11]; 100 mg,4 h
same,half-life,clinical [11]; 100 mg,43.1 h
same,AUC(0-inf),clinical [11]; 300 mg,4330 ng·h/mL
same,AUC(0-t),clinical [11]; 300 mg,1450 ng·h/mL
same,Cmax,clinical [11]; 300 mg,116 ng/mL
same,Tmax,clinical [11]; 300 mg,3 h
same,half-life,clinical [11]; 300 mg,206 h
